# According to US9179678B2, “Substituted [1,2,4]triazoles and substituted tetrazoles as herbicides” (SYNGENTA LIMITED, priority 2012, dated 2015):
# Key:
# Type in all cases: in vivo
# [1] = tested on: Amaranthus retoflexus (AMARE); test: Pre-emergence glasshouse herbicide test; details: PRE Application, 1000 g/h, after 13 days
# Setaria faberi (SETFA) [2] = test: Pre-emergence glasshouse herbicide test; details: PRE Application, 1000 g/h, after 13 days
# [3] = tested on: Ipomoea hederacea (IPOHE); test: Pre-emergence glasshouse herbicide test; details: PRE Application, 1000 g/h, after 13 days
# Solanum nigrum (SOLNI) [4] = test: Pre-emergence glasshouse herbicide test; details: PRE Application, 1000 g/h, after 13 days
# [5] = tested on: Echinochloa crus-galli (ECHCG); test: Pre-emergence glasshouse herbicide test; details: PRE Application, 1000 g/h, after 13 days
# [6] = tested on: Alopecurus myosuroides (ALOMY); test: Pre-emergence glasshouse herbicide test; details: PRE Application, 1000 g/h, after 13 days
# How it was run: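 This pre-emergence glasshouse test used pots of standard soil sown with ALOMY seed and cultivated for one day under controlled conditions of 24/16° C., 14 hours light and 65% humidity. An aqueous spray from an acetone/water (50:50) formulation with 0.5% Tween 20 was applied. After 13 days of further growth with twice-daily watering, plant damage was rated as a percentage.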
# Setaria faberi (SETFA) [7] = test: Post-emergence glasshouse herbicide test; details: POST Application, 1000 g/h, after 13 days
# How it was run: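 This post-emergence glasshouse herbicide test used SETFA plants raised in pots of standard soil for 8 days under controlled conditions (24/16° C., 14 hours light, 65% humidity). An aqueous spray made from acetone/water (50:50) with 0.5% Tween 20 was applied. Plants were watered twice daily, and percentage plant damage was assessed 13 days later.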
# [8] = tested on: Amaranthus retoflexus (AMARE); test: Post-emergence glasshouse herbicide test; details: POST Application, 1000 g/h, after 13 days
# [9] = tested on: Ipomoea hederacea (IPOHE); test: Post-emergence glasshouse herbicide test; details: POST Application, 1000 g/h, after 13 days
# Solanum nigrum (SOLNI) [10] = test: Post-emergence glasshouse herbicide test; details: POST Application, 1000 g/h, after 13 days
# How it was run: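 This glasshouse post-emergence herbicide test used Solanum nigrum plants sown in standard soil and cultivated for 8 days under controlled conditions (24/16° C. day/night, 14 hours light, 65% humidity). An aqueous spray from an acetone/water (50:50) solution with 0.5% Tween 20 was applied. Plants were watered twice daily, and damage to each plant was assessed as a percentage 13 days later.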
# [11] = tested on: Echinochloa crus-galli (ECHCG); test: Post-emergence glasshouse herbicide test; details: POST Application, 1000 g/h, after 13 days
# [12] = tested on: Alopecurus myosuroides (ALOMY); test: Post-emergence glasshouse herbicide test; details: POST Application, 1000 g/h, after 13 days
# How it was run: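 In this glasshouse post-emergence test, ALOMY plants were cultivated in standard soil for 8 days under controlled conditions (24/16° C. day/night, 14 hours light, 65% humidity). They were then treated with a spray derived from an acetone/water (50:50) formulation with 0.5% Tween 20, grown on with watering twice daily, and rated for percentage damage after 13 days.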
SMILES,"percentage damage caused to the plant, AMARE [1]","percentage damage caused to the plant, SETFA (Setaria faberi (SETFA) [2])","percentage damage caused to the plant, IPOHE [3]","percentage damage caused to the plant, SOLNI (Solanum nigrum (SOLNI) [4])","percentage damage caused to the plant, ECHCG [5]","percentage damage caused to the plant, ALOMY [6]","percentage damage caused to the plant, SETFA (Setaria faberi (SETFA) [7])","percentage damage caused to the plant, AMARE [8]","percentage damage caused to the plant, IPOHE [9]","percentage damage caused to the plant, SOLNI (Solanum nigrum (SOLNI) [10])","percentage damage caused to the plant, ECHCG [11]","percentage damage caused to the plant, ALOMY [12]"
Cc1ccccc1-n1c(=O)c(C(=O)Nc2nnnn2C)nc2ccccc21 [Compound 5.034],5 (5=80-100%),5 (5=80-100%),5 (5=80-100%),5 (5=80-100%),5 (5=80-100%),5 (5=80-100%),5 (5=80-100%),5 (5=80-100%),5 (5=80-100%),5 (5=80-100%),5 (5=80-100%),4 (4=60-79%)
Cn1nnnc1NC(=O)c1nc2ccccc2n(-c2ccc(Cl)c(Cl)c2)c1=O [Compound 5.035],5 (5=80-100%),5 (5=80-100%),5 (5=80-100%),5 (5=80-100%),2 (2=20-39%),3 (3=40-59%),4 (4=60-79%),5 (5=80-100%),5 (5=80-100%),5 (5=80-100%),2 (2=20-39%),2 (2=20-39%)
Cc1cc(-n2c(=O)c(C(=O)Nc3nnnn3C)nc3ccccc32)ccc1Cl [Compound 5.036],5 (5=80-100%),4 (4=60-79%),5 (5=80-100%),5 (5=80-100%),3 (3=40-59%),3 (3=40-59%),4 (4=60-79%),5 (5=80-100%),5 (5=80-100%),5 (5=80-100%),5 (5=80-100%),2 (2=20-39%)
Cn1nnnc1NC(=O)c1nc2ccccc2n(-c2ccc(Cl)c(C(F)(F)F)c2)c1=O [Compound 5.037],5 (5=80-100%),5 (5=80-100%),5 (5=80-100%),5 (5=80-100%),2 (2=20-39%),4 (4=60-79%),5 (5=80-100%),5 (5=80-100%),5 (5=80-100%),5 (5=80-100%),5 (5=80-100%),4 (4=60-79%)
Cc1cccc(-n2c(=O)c(C(=O)Nc3ncnn3C)nc3ccccc32)n1 [Compound 5.038],5 (5=80-100%),4 (4=60-79%),3 (3=40-59%),5 (5=80-100%),1 (1=0-19%),4 (4=60-79%),5 (5=80-100%),5 (5=80-100%),5 (5=80-100%),5 (5=80-100%),2 (2=20-39%),5 (5=80-100%)
COc1ccc(-n2c(=O)c(C(=O)Nc3nnnn3C)nc3ccccc32)cc1Cl [Compound 5.039],5 (5=80-100%),2 (2=20-39%),2 (2=20-39%),5 (5=80-100%),3 (3=40-59%),1 (1=0-19%),1 (1=0-19%),5 (5=80-100%),5 (5=80-100%),5 (5=80-100%),3 (3=40-59%),1 (1=0-19%)
Cn1nnnc1NC(=O)c1nc2ccccc2n(-c2ccc(C(F)(F)F)c(Cl)c2)c1=O [Compound 5.040],5 (5=80-100%),1 (1=0-19%),3 (3=40-59%),5 (5=80-100%),1 (1=0-19%),1 (1=0-19%),2 (2=20-39%),5 (5=80-100%),5 (5=80-100%),5 (5=80-100%),2 (2=20-39%),2 (2=20-39%)
Cn1ncnc1NC(=O)c1nc2ccccc2n(-c2ccccc2)c1=O [Compound 5.041],5 (5=80-100%),1 (1=0-19%),2 (2=20-39%),5 (5=80-100%),1 (1=0-19%),1 (1=0-19%),1 (1=0-19%),5 (5=80-100%),5 (5=80-100%),5 (5=80-100%),1 (1=0-19%),2 (2=20-39%)
Cn1nnnc1NC(=O)c1nc2ccccc2n(-c2ccc(I)cc2)c1=O [Compound 5.042],5 (5=80-100%),2 (2=20-39%),5 (5=80-100%),5 (5=80-100%),3 (3=40-59%),2 (2=20-39%),5 (5=80-100%),5 (5=80-100%),5 (5=80-100%),5 (5=80-100%),3 (3=40-59%),2 (2=20-39%)
